Consider 4 compounds from patent EP0487095B1, “Pyridyl derivatives, medicines containing these compounds and processes for their preparation” (Dr. Karl Thomae GmbH, priority 1990, dated 1992).

Assay [1] deals with Thrombozytenaggregation. Put plainly: Collagen-induced platelet aggregation (Born and Cross) in platelet-rich plasma. Type of assay: cell-based. The conditions noted are these: Homo sapiens; platelet-rich plasma of healthy subjects, 10 min preincubation at 37°C, 50% change of optical density; read-out: Hemmung der collagen-induzierten Aggregation EC₅₀. The source says:
1. Antithrombotische Wirkung
Die Thrombozytenaggregation wird nach der Methode von Born und Cross (J. Physiol. 170, 397 (1964)) in plättchenreichem Plasma gesunder Versuchspersonen gemessen. Zur Gerinnungshemmung wird das Blut mit Natriumcitrat 3,14 % im Volumenverhältnis 1:10 versetzt.
Collagen-induzierte Aggregation
Der Verlauf der Abnahme der optischen Dichte der Plättchensuspension wird nach Zugabe der aggregationsauslösenden Substanz photometrisch gemessen und registriert. Aus dem Neigungswinkel der Dichtekurve wird auf die Aggregationsgeschwindigkeit geschlossen. Der Punkt der Kurve, bei dem die größte Lichtdurchlässigkeit vorliegt, dient zur Berechnung der "optical density".
Die Collagen-Menge wird möglichst gering gewählt, aber doch so, daß sich eine irreversibel verlaufende Reaktionskurve ergibt. Verwendet wird das handelsübliche Collagen der Firma Hormonchemie, München. Vor der Collagen-Zugabe wird das Plasma jeweils 10 Minuten mit der Substanz bei 37°C inkubiert.
Aus den erhaltenen Meßzahlen wird graphisch eine EC₅₀ bestimmt, die sich auf eine 50%ige Änderung der "optical density" im Sinne einer Aggregationshemmung bezieht.

Assay [2] concerns the target T1, Thromboxansynthetase (Homo sapiens, UniProt P24557).
T1 construct: Aliquots der erhaltenen Plättchensuspension werden mit der Testsubstanz bzw; Lösungsmittel als Kontrolle 10 Minuten bei Raumtemperatur inkubiert; endogenous in cells; host or cells: gel-filtered human platelets from venous blood
T1 sequence (P24557 1-533): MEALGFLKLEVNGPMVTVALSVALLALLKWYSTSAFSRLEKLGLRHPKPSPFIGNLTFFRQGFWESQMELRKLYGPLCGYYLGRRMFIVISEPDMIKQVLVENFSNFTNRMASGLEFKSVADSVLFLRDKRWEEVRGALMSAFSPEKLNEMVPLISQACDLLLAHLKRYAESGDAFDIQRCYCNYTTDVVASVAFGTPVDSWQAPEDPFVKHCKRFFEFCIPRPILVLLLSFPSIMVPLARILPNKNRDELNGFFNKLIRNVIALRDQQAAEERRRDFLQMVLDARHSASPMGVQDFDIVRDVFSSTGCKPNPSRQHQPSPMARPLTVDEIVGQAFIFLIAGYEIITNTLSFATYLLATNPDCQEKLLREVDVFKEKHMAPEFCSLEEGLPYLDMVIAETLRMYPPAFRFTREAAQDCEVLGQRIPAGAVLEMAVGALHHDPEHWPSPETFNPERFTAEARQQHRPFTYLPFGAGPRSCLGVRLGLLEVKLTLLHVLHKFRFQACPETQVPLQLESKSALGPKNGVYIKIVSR
Put plainly: Inhibition of thromboxane synthetase (TXB2 formation from 14C-arachidonic acid in platelet suspension). The assay is classed as cell-based. Conditions: 10 min preincubation at room temperature, read-out: Hemmung der Thromboxansynthetase IC₅₀. As for the experimental part: 3. Bestimmung der Hemmwirkung auf die Thromboxansynthetase
Venöses Humanblut wird mit 13 mM Na3-Citrat antikoaguliert und 10 Minuten bei 170 x g zentrifugiert. Das überstehende plättchenreiche Plasma wird zur Entfernung der Plasmaproteine über eine Sepharose-2B-Säule gegeben. Aliquots der erhaltenen Plättchensuspension werden mit der Testsubstanz bzw. Lösungsmittel als Kontrolle 10 Minuten bei Raumtemperatur inkubiert und nach Zugabe 14C-markierter Arachidonsäure die Inkubation weitere 10 Minuten fortgesetzt. Nach Abstoppen mit 50 µl Zitronensäure wird 3 x mit 500 µl Essigester extrahiert und die vereinigten Extrakte mit Stickstoff abgeblasen. Der Rückstand wird in Essigester aufgenommen, auf DC-Folie aufgetragen und mit Chloroform:Methanol:Eisessig:Wasser (90:8:1:0,8, v/v/v/v) getrennt. Die getrockneten DC-Folien werden 3 Tage auf Röntgenfilm gelegt, die Autoradiogramme entwickelt und mit ihrer Hilfe die aktiven Zonen auf der Folie markiert. Nach Ausschneiden wird die Aktivität im Szintillationszähler bestimmt und die Hemmung der TXB2-Bildung berechnet. Die IC₅₀ wird durch lineare Interpolation bestimmt.

Assay [3] concerns the target T2, Thromboxan (Homo sapiens, UniProt P21731).
T2 construct: Aliquote der erhaltenen Plättchensuspension werden mit der Testsubstanz, dem Liganden (3H-markiert) und einem Marker (14C-markiert) 60 Minuten bei Raumtemperatur inkubiert; endogenous in cells; host or cells: gel-filtered human platelets from venous blood
T2 sequence (P21731 1-343): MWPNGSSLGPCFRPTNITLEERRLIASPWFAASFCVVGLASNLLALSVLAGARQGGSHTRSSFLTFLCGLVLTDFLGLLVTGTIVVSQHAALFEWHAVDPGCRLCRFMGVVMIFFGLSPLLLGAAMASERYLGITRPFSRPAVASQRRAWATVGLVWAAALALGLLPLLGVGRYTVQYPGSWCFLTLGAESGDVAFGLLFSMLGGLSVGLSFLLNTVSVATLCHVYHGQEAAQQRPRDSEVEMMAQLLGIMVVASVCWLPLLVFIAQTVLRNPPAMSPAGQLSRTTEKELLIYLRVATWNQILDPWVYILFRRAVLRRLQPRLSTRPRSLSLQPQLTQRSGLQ
Put plainly: Thromboxane-antagonistic effect (displacement of 3H-labelled ligand from platelet suspension). Type of assay: binding. Conditions: 60 min at room temperature, read-out: Thromboxanantagonistische Wirkung IC₅₀. How it is done: 2. Thromboxanantagonistische Wirkung
Venöses Humanblut wird mit 13 mM Na3-Citrat antikoaguliert und 10 Minuten bei 170 x g zentrifugiert. Das überstehende plättchenreiche Plasma wird zur Entfernung der Plasmaproteine über eine Sepharose-2B-Säule gegeben. Aliquote der erhaltenen Plättchensuspension werden mit der Testsubstanz, dem Liganden (3H-markiert) und einem Marker (14C-markiert) 60 Minuten bei Raumtemperatur inkubiert und danach 20 Sekunden bei 10 000 x g abzentrifugiert. Der Überstand wird abgezogen und das Pellet in NaOH gelöst. Die 3H-Aktivität im Überstand entspricht dem freien Liganden, 14C ergibt die Konzentration des Markers. 3H im Pellet entspricht dem gebundenen Liganden, 14C wird zur Korrektur für Ligand im Extrazellulärraum verwendet. Aus den Bindungswerten für verschiedene Konzentrationen der Testsubstanz wird nach Iteration die Verdrängungskurve ermittelt und die IC₅₀ bestimmt.

Turning to `O=C(O)CCCC=C(c1ccc(NC(=O)C2CC2c2ccc(Cl)cc2)cc1)c1cccnc1` (single isomer, unassigned; (-)) [A, (-)-5E-6-[4-(Z-2-(4-Chlorphenyl)-cyclopropyl-1-carboxamido)-phenyl]-6-(3-pyridyl)-hex-5-ensäure], in assay [1], the EC50 came to 500 nM. In addition, the IC50 in assay [2] and in assay [3] was 4 nM in each case.

Turning to `O=C(O)CCC/C=C(/c1cccnc1)c1cccc(NC(=O)CCc2ccc(Cl)cc2)c1` [B, 5E-6-[3-(3-(4-Chlorphenyl)-propionylamino)-phenyl]-6-(3-pyridyl)-hex-5-ensäure], the EC50 in assay [1] is 2200 nM. Further, the IC50 in assay [2] was found to be 4 nM; in assay [3] it was 8 nM.

Turning to `O=C(O)CCC/C=C(/c1cccnc1)c1cccc(NC(=S)Nc2ccc(Cl)cc2)c1` [C, 5E-6-[3-(3-(4-Chlorphenyl)-thioureido)-phenyl]-6-(3-pyridyl)-hex-5-ensäure], the EC50 in assay [1] came to 800 nM. Besides, the IC50 in assay [2] came out at 32 nM; in assay [3] it was 12 nM.

For `CN(C(=S)Nc1ccc(Cl)cc1Cl)c1cccc(/C(=C\CCCC(=O)O)c2cccnc2)c1` [D, 5E-6-[3-(3-(2,4-Dichlorphenyl)-1-methylthioureido)-phenyl]-6-(3-pyridyl)-hex-5-ensäure], the EC50 in assay [1] worked out at 1200 nM. The IC50 came out at 90 nM in assay [2] and 17 nM in assay [3].
